# Laboratory results taken from ChEMBL document CHEMBL5252512, “Recent Progress in the Development of HIV-1 Protease Inhibitors for the Treatment of HIV/AIDS” (J Med Chem, 2016).
# Experiments:
# [1] = tested on: Human immunodeficiency virus 1; assay: Antiviral activity against wild type HIV-1 IIIB infected in human MT4 cells assessed as protection against virus-induced cytotoxicity incubated for 5 days by XTT assay; type: functional, organism-based; conditions: Human immunodeficiency virus 1, IIIB, MT4, 120 h
# [2] = biological target: T1, Human immunodeficiency virus type 1 protease (Human immunodeficiency virus 1, UniProt Q72874); assay: Binding affinity to wild-type HIV1 protease expressed in Escherichia coli BL21(DE3) assessed as inhibition constant using (2-aminobenzoyl)Thr-Ile-Nle-(p-nitro)Phe-Gln-Arg peptide as substrate preincubated for 15 mins followed by substrate addition by fluorimeter analysis
# [3] = biological target: T1, Human immunodeficiency virus type 1 protease; assay: Inhibition of recombinant HIV1 Protease using His-Lys-Ala-Arg-Val-Leu-(pNO2-Phe)-Glu-Ala-Nle-SerNH2 peptide as substrate
# [4] = Clearance in dog at 1 mg/kg, iv; type: ADME, organism-based, Canis lupus familiaris; conditions: in vivo
# [5] = Half life in dog at 1 mg/kg, iv; type: ADME, organism-based, Canis lupus familiaris; conditions: in vivo
# [6] = Half life in rat at 1 mg/kg, iv; type: ADME, organism-based; conditions: in vivo
# [7] = Clearance in rat at 2 mg/kg, iv; type: ADME, organism-based; conditions: in vivo
# [8] = AUC in rat at 10 mg/kg, po; type: ADME, organism-based; set-up: dose 10 mg/kg, route po; conditions: in vivo
# [9] = AUC in dog at 4 mg/kg, po; type: ADME, organism-based, Canis lupus familiaris; set-up: dose 4 mg/kg, route po; conditions: in vivo
# [10] = biological target: T1, Human immunodeficiency virus type 1 protease; assay: Binding affinity to HIV1 protease assessed as inhibition constant
# [11] = tested on: Human immunodeficiency virus 1; assay: Antiviral activity against HIV1 LAI infected in human MT2 cells assessed as inhibition of virus-induced cytopathic effect; type: functional, organism-based; conditions: Human immunodeficiency virus 1, LAI
# [12] = biological target: T1, Human immunodeficiency virus type 1 protease; assay: Inhibition of recombinant HIV1 Protease using Abz-Thr-Ile-Nle-(p-nitro)-Phe-Gln-Arg-NH2 peptide as substrate
compound,measurement,setting,value
CCOP(=O)(COc1ccc(C[C@H](NC(=O)O[C@H]2CO[C@H]3OCC[C@H]32)[C@H](O)CN(CC(C)C)S(=O)(=O)c2ccc(OC)cc2)cc1)OCC,EC50,[1],3.5 nM
same,Ki,[2],0.0081 nM
C=C(C)[C@H]1CC[C@]2(C)[C@H]3CC[C@@H]4[C@@]5(C)C[C@H](OC(C)=O)C[C@](C)(C(=O)O)[C@@H]5CC[C@@]4(C)[C@]3(C)CC[C@@H]12,IC50,[3],1700 nM
CCCN([C@H](CO)CCC[C@H](C)NC(=O)[C@@H](NC(=O)OC)C(c1ccccc1)c1ccccc1)S(=O)(=O)c1ccc(N)cc1,clearance,[4],0.318 L/h/kg
same,half-life,[5],9.1 h
same,half-life,[6],12.4 h
same,clearance,[7],1.8 L/h/kg
same,AUC,[8],1350 nM·h
same,AUC,[9],2480 nM·h
COc1ccc(S(=O)(=O)N(CC(C)C)C[C@@H](O)[C@H](Cc2ccccc2)NC(=O)O[C@@H]2C[C@@H]3OCO[C@@H]3C2)cc1,Ki,[10],0.11 nM
same,IC50,[11],3.8 nM
CCCN([C@H](CO)CCC[C@@H](NC(=O)[C@@H](NC(=O)OC)C(c1ccccc1)c1ccccc1)C(F)(F)F)S(=O)(=O)c1ccc(N)cc1,clearance,[4],0.282 L/h/kg
same,half-life,[5],5.2 h
same,half-life,[6],3.38 h
same,clearance,[7],1.04 L/h/kg
same,AUC,[8],560 nM·h
same,AUC,[9],3620 nM·h
Cc1cccc(C)c1OCC(=O)N(Cc1ccccc1)C[C@@H]1CNC[C@H]1CN(CC(C)C)S(=O)(=O)c1ccccc1,IC50,[12],2200 nM
C=C(C)[C@@H]1CC[C@@]2(C)[C@@H]1C1CC[C@@H]3[C@@](C)(CC(=O)O)[C@H](C(C)(C)C(=O)O)CC[C@@]3(C)[C@]1(C)C[C@@H]2O (some centres undefined),IC50,[3],17800 nM
